The values that follow come from ChEMBL document CHEMBL1141932 (J Med Chem, 2005).

The subject of assay [1] is RPMI-8226. Description: Cytotoxic activity against RPMI 8226 cells. To be noted: Homo sapiens. It is filed as functional, cell-based.
Assay [2] relates to HEK293. Description: Inhibition of NF-kB activation in HEK293 cells. Format: functional, cell-based. To be noted: Homo sapiens.
For assay [3], the species on record is Oryctolagus cuniculus. Description: Inhibition of trypsin-like (T-L) activity of rabbit 20S proteasome. Format: functional.
For assay [4], the species on record is Oryctolagus cuniculus. Description: Inhibition of chymotrypsin-like (CT-L) activity of rabbit 20S proteasome. Format: functional.
For assay [5], the species on record is Oryctolagus cuniculus. Description: Inhibition of caspase-like (CA-L) activity of rabbit 20S proteasome. Format: functional.

With `C[C@@]12OC(=O)[C@]1(C(=O)[C@@H]1C=CCCC1)NC(=O)[C@@H]2CCCl`, the IC50 in assay [1] is over 20000 nM; in assay [2], over 20000 nM; in assay [3], 10000 nM; in assay [4] it was 8200 nM; in assay [5], over 20000 nM.
For `C[C@@]12OC(=O)[C@]1([C@@H](O)[C@@H]1C=CCCC1)NC(=O)[C@@H]2CCBr` [BROMOSALINOSPORAMIDE], the IC50 in assay [1] turned out to be 7.4 nM; in assay [2] it was 14 nM; in assay [3], 14 nM; in assay [4], 2.6 nM; in assay [5], 290 nM.
For `CC[C@H]1C(=O)N[C@@]2([C@@H](O)[C@@H]3C=CCCC3)C(=O)O[C@@]12C` [SALINOSPORAMIDE B], the results for the IC50 in assay [2], in assay [3] and in assay [4] were 1600 nM, 640 nM and 27 nM, respectively.
For the compound `C[C@@]12OC(=O)[C@]1([C@@H](O)[C@@H]1C=CCCC1)NC(=O)[C@@H]2CCN=[N+]=[N-]`, the IC50 in assay [1] was determined as 5500 nM; in assay [2], 1000 nM; in assay [3] it was 210 nM; in assay [4] it was 7.7 nM; in assay [5] it was 560 nM.
For the compound `C[C@@]12OC(=O)[C@]1([C@@H](O)[C@H]1CCC[C@H](Cl)[C@H]1O)NC(=O)[C@@H]2CCCl`, the IC50 is over 20000 nM in assay [1]; over 20000 nM in assay [2]; over 20000 nM in assay [3]; 8200 nM in assay [4]; over 20000 nM in assay [5].
Regarding `C[C@@]12OC(=O)[C@]1([C@@H](O)[C@@H]1C=CCCC1)NC(=O)C2CCCl` (single isomer, unassigned), the IC50 in assay [1] was 1900 nM; in assay [2], 3800 nM; in assay [3], 2500 nM; in assay [4], 330 nM; in assay [5], over 20000 nM.
Take `C[C@@]12OC(=O)[C@]1([C@@H](O)[C@@H]1C=CCCC1)NC(=O)[C@@H]2CCCl` [MARIZOMIB]: the IC50 in assay [1] worked out at 8.2 nM; in assay [2], 11 nM; in assay [4], 2.6 nM; in assay [5], 430 nM.
Turning to `C[C@@]12OC(=O)[C@]1([C@@H](O)[C@@H]1C=CCCC1)NC(=O)[C@@H]2CCI` [IODOSALINOSPORAMIDE], the IC50 in assay [1] turned out to be 6.8 nM; in assay [2], 10 nM; in assay [3] it was 13 nM; in assay [4], 2.8 nM; in assay [5] it was 410 nM.
Turning to `C[C@H]1C(=O)N[C@@]2([C@@H](O)[C@@H]3C=CCCC3)C(=O)O[C@@]12C`, the IC50 is 8500 nM in assay [1]; 850 nM in assay [2]; 340 nM in assay [3]; 7.7 nM in assay [4]; 1200 nM in assay [5].
Regarding `CCC[C@H]1C(=O)N[C@@]2([C@@H](O)[C@@H]3C=CCCC3)C(=O)O[C@@]12C`, the 50% inhibitory concentration (IC50) in assay [1] amounted to 6300 nM; in assay [2], 1900 nM; in assay [3], 1100 nM; in assay [4], 24 nM; in assay [5] it was 1200 nM.
With `C[C@@]12OC(=O)[C@]1(C(O)[C@@H]1C=CCCC1)NC(=O)[C@@H]2CCCl` (some centres not stated), the IC50 in assay [1], in assay [2], in assay [3], in assay [4] and in assay [5] was over 20000 nM each time.
For the compound `C[C@@]12OC(=O)[C@]1([C@@H](O)[C@H]1CCC[C@H]3O[C@@H]13)NC(=O)[C@@H]2CCCl`, the IC50 in assay [1] is 32 nM; in assay [2], 34 nM; in assay [3], 92 nM; in assay [4], 6.3 nM; in assay [5], 570 nM.
Consider `C[C@@]12OC(=O)[C@]1([C@@H](O)C1CCCCC1)NC(=O)[C@@H]2CCCl`, for which the IC50 in assay [1] is 52 nM; in assay [2] it was 71 nM; in assay [3] it was 250 nM; in assay [4], 20 nM; in assay [5] it was 1400 nM.
As for `CC[C@@]12OC(=O)[C@]1([C@@H](O)[C@@H]1C=CCCC1)NC(=O)[C@@H]2CCCl`, the IC50 in assay [1] is 1900 nM; in assay [2], 3600 nM; in assay [3] it was 3300 nM; in assay [4], 2100 nM; in assay [5], over 20000 nM.
Turning to `CC(C)[C@H](O)[C@@]12NC(=O)[C@H](C)[C@@H]1OC2=O` [OMURALIDE], the IC50 in assay [1] was 3300 nM; in assay [2] it was 1600 nM; in assay [3] it was 540 nM; in assay [4], 57 nM; in assay [5], over 10000 nM.
Regarding `C[C@@]12OC(=O)C1([C@@H](O)[C@@H]1C=CCCC1)NC(=O)[C@@H]2CCO` (single isomer, unassigned) [hydroxysalinosporamide A], the IC50 in assay [1] is over 20000 nM; in assay [2], 2600 nM; in assay [3] it was 800 nM; in assay [4], 8 nM; in assay [5], 2500 nM.
As for `C[C@@]12OC(=O)[C@]1(C(O)[C@H]1CCC[C@@H]3OC13)NC(=O)[C@@H]2CCCl` (single isomer, unassigned), the IC50 in assay [1] is 320 nM; in assay [2], 300 nM; in assay [3] it was 770 nM; in assay [4], 91 nM; in assay [5], 3200 nM.

One may read the IC50 as the concentration at which inhibition is half-maximal. Higher therefore signals weaker potency.
